Measurements: patent US20240255506A1, “PAIRED-CELL PROFILING SYSTEMS FOR HIGH-THROUGHPUT SCREENING SYNCYTIUM FORMATION” (priority 2023, published 2024)

Assays:
[1] = tested on: SARS-COV-2 spike-induced syncytium formation in A549-ACE2 cells; assay type: cell-based; conditions: A549-ACE2-GFP1-10 receiver cells, HEK293T-GFP-11 sender cells expressing WT D614G spike; drugs added 3 h after seeding, imaged after 24 h; vs DMSO-treated control
[2] = tested on: SARS-COV-2 D614G virus; assay type: cell-based; conditions: both cell lysate and supernatant samples after virus infection; Vero E6, Vero E6-TMPRSS2 and A549-ACE2 cells
[3] = tested on: SARS-COV-2 spike-induced syncytium formation in Vero E6 cells; assay type: cell-based; conditions: Vero E6-GFP1-10 receiver cells, HEK293T-GFP-11 sender cells expressing WT D614G spike; drugs added 3 h after seeding, imaged after 24 h; vs DMSO-treated control
[4] = tested on: SARS-COV-2 D614G; conditions: hamster, in vivo; for infectious SARS-COV-2 titer in lung tissues (plaque assay) / virus RdRp gene expression level in lung tissues: ip
[5] = tested on: SARS-COV-2 D614G live virus; assay type: cell-based; conditions: Vero E6 and Vero E6-TMPRSS2 GFP1-10/GFP11 cells; CPZ 16 μM, promethazine 12.5 μM, fluvoxamine 12.5 μM, 24 h

## CN(C)CCCN1c2ccccc2Sc2ccc(Cl)cc21 [chlorpromazine]
[1]
  syncytium formation: greatly impeded syncytium formation
[2]
  expression levels of SARS-COV-2 RNA-dependent RNA polymerase (RdRp): greatly reduced
[3]
  syncytium formation: greatly impeded syncytium formation
[4]
  area of positivity of the SARS-COV-2 nucleocapsid protein in lung tissues: reduced
  body weight of the hamsters: no significant change
  syncytium-like multinucleated cells within SARS-COV-2 nucleocapsid-positively stained lung tissues: less syncytium-like multinucleated cells were detected
  infectious SARS-COV-2 titer in lung tissues (plaque assay): reduced
  virus RdRp gene expression level in lung tissues: reduced
[5]
  syncytium formation in SARS-COV-2 D614G-infected cells: inhibited syncytium formation

## CC(CN1c2ccccc2Sc2ccccc21)N(C)C (stereo not shown) [promethazine]
[1]
  syncytium formation: greatly impeded syncytium formation
[2]
  expression levels of SARS-COV-2 RNA-dependent RNA polymerase (RdRp): greatly reduced
[3]
  syncytium formation: greatly impeded syncytium formation
[5]
  syncytium formation in SARS-COV-2 D614G-infected cells: inhibited syncytium formation

## COCCCC/C(=N\OCCN)c1ccc(C(F)(F)F)cc1 [fluvoxamine]
[1]
  syncytium formation: greatly impeded syncytium formation
[2]
  expression levels of SARS-COV-2 RNA-dependent RNA polymerase (RdRp): greatly reduced
[3]
  syncytium formation: greatly impeded syncytium formation
[4]
  area of positivity of the SARS-COV-2 nucleocapsid protein in lung tissues: reduced
  body weight of the hamsters: no significant change
  syncytium-like multinucleated cells within SARS-COV-2 nucleocapsid-positively stained lung tissues: less syncytium-like multinucleated cells were detected
  infectious SARS-COV-2 titer in lung tissues (plaque assay): reduced
  virus RdRp gene expression level in lung tissues: reduced
[5]
  syncytium formation in SARS-COV-2 D614G-infected cells: inhibited syncytium formation
